Assay results published in article PMC7600266, “Caerin 1 Antimicrobial Peptides that Inhibit HIV and Neisseria May Spare Protective Lactobacilli” (Antibiotics, 2020).
Entries after “also recorded” stand apart in the source; their conditions may differ.

Key:
[1] = system: Lactobacillus rhamnosus, ATCC 39595; assay: Bacterial growth assay, Lactobacillus rhamnosus; type: cell-based; conditions: for inhibition of L. rhamnosus growth, result in words: peptide tested at 0.4 or 0.8 to 50 µM; for reduction of L. rhamnosus growth: vs no-peptide control; for inhibition of L. rhamnosus growth at highest concentration: 50 µM peptide (50 µm [sic]), one-way ANOVA with Tukey's post hoc test; for viability as measured by 24-h growth of L. rhamnosus: range of concentrations 0.4–25 µM
Description: (§1) Bacterial strains were obtained from the American Type Culture Collection (Lactobacillus crispatus, ATCC® 33197™; Lactobacillus rhamnosus, ATCC® 39595™; Neisseria lactamica (ATCC® 23970™). Growth assays were conducted to determine the concentrations at which each peptide inhibited the growth of the three bacterial species. The Lactobacillus bacteria were grown in de Man, Rogosa, and Sharpe (MRS) broth and the N. lactamica in Fastidious Broth. Bacterial cells were cultured in broth for 24 to 48 h until they reached an optical density of about 0.1 O.D. units at 630 nm and diluted to achieve a concentration of 10^6 cells per mL. The peptides were serially diluted with sterile water to reach peptide concentrations of 0.4, 0.8, 1.6, 3.12, 6.25, 12.5, 25, and 50 µM final concentrations in culture. The bacterial cells at 10^6 cells/mL and the peptides were plated in triplicate in a 96-well plate. Included was a negative control for growth (three to five replicates of bacteria plus penicillin-streptomycin), a positive control for growth (three to five replicates of bacteria plus water), and a blank (three to five replicates of broth plus water) to ensure the broth was not contaminated. Bacterial cells were plated in 50 µL of broth, and each dilution of peptides was added in a volume of 50 µL to achieve a total volume of 100 µL. For the positive control, 50 µL of sterile water was added to 50 µL of cells in broth. For the negative control, 50 µL of the antibiotic solution was added to 50 µL of cells in broth. The O.D. of each well was recorded before and after a 24-h incubation period at 37 °C using a Biotek ELx808 reader (Biotek, Winooski, VT, USA). Data for representative experiments are expressed as average O.D. ± standard error of the mean at each peptide concentration. To express data from replicate experiments, the average as percent growth in comparison with the positive (no peptide) control set at 100% for the range of concentrations from 6.25–50 µM is shown. […] A p-value of less than 0.05 was considered significant.

[2] = system: Lactobacillus crispatus, ATCC 33197; assay: Bacterial growth assay, Lactobacillus crispatus; type: cell-based; conditions: 24 h, 37 °C, O.D. 630 nm; for effect on L. crispatus growth, result in words: peptide tested at 0.4 or 0.8 to 50 µM; for inhibition of L. crispatus growth at highest concentration: 50 µM peptide, MRS broth; for inhibition of L. crispatus growth at lower concentrations: concentrations of 25 µM or less
Description: as §1

HIV = conditions: cited from earlier work; for inhibition of HIV infection, result in words: percent HIV infection of target T cells, 6.25–25 µM, replotted from a previous publication
Text: Its sequence is shown here for comparison with the synthetically modified caerin 1.1 peptide. Amino acid modifications to the caerin 1.1 and to the caerin 1.9 peptides are shown in bold type with gray shading. […] Thus, we first tested these four peptides for effects on growth of L. rhamnosus. […] To evaluate both parameters at once, we plotted the patterns of inhibition of HIV infection from a previous publication on the same axes as the new data for effects on L. rhamnosus and L. crispatus growth. […] Among all of the ...

bacteria = conditions: cited from earlier work; for antibacterial activity, previously shown: control peptides, for caerin 1.3 against most of the bacteria tested
Text: Its sequence is shown here for comparison with the synthetically modified caerin 1.1 peptide. Amino acid modifications to the caerin 1.1 and to the caerin 1.9 peptides are shown in bold type with gray shading. All of the peptides studied have many simil ...

[3] = system: Neisseria lactamica (ATCC 23970); assay: Bacterial growth assay, Neisseria lactamica; type: cell-based; conditions: tested twice; 0.8 to 50 µM; 24 h, 37 °C
Description: Bacterial strains were obtained from the American Type Culture Collection (Lactobacillus crispatus, ATCC® 33197™; Lactobacillus rhamnosus, ATCC® 39595™; Neisseria lactamica (ATCC® 23970™). Growth assays were conducted to determine the concentrations at which each peptide inhibited the growth of the three bacterial species. The Lactobacillus bacteria were grown in de Man, Rogosa, and Sharpe (MRS) broth and the N. lactamica in Fastidious Broth. Bacterial cells were cultured in broth for 24 to 48 h until they reached an optical density of about 0.1 O.D. units at 630 nm and diluted to achieve a concentration of 10^6 cells per mL. The peptides were serially diluted with sterile water to reach peptide concentrations of 0.4, 0.8, 1.6, 3.12, 6.25, 12.5, 25, and 50 µM final concentrations in culture. The bacterial cells at 10^6 cells/mL and the peptides were plated in triplicate in a 96-well plate. […] The O.D. of each well was recorded before and after a 24-h incubation period at 37 °C using a Biotek ELx808 reader (Biotek, Winooski, VT, USA). Data for representative experiments are expressed as average O.D. ± standard error of the mean at each peptide concentration. […]

[4] = system: T lymphocytes or endocervical cell lines; conditions: cited from earlier work
[5] = 25 µM peptide, MRS broth, 24 h, 37 °C, O.D. 630 nm

Substance | inhibition of L. rhamnosus growth, result in words ([1]; 24 h, 37 °C, O.D. 630 nm) | effect on L. crispatus growth, result in words [2] | inhibition of HIV infection, result in words (HIV) | antibacterial activity, previously shown (bacteria) | reduction of L. rhamnosus growth [1, 5] | inhibition of L. rhamnosus growth at highest concentration ([1]; 24 h, 37 °C, O.D. 630 nm) | viability as measured by 24-h growth of L. rhamnosus [1] | inhibition of L. crispatus growth at highest concentration [2] | inhibition of L. crispatus growth at lower concentrations [2] | inhibition of N. lactamica growth, comparison in words [3] | inhibition of HIV (transmission), previous studies (HIV) | toxicity to T lymphocytes or endocervical cell lines [4] | antibacterial spectrum (bacteria) | average bacterial growth of L. rhamnosus ([1]; 25 µM peptide, percent growth vs no-peptide control set at 100%, 10^6 cells/mL, MRS broth, 24 h, 37 °C, O.D. 630 nm, average of replicate experiments)
GLLSSLSSVAKHVLPHVVPVIAEHL-NH2 [caerin 1.4, caerin 1 antimicrobial peptide, origin L. caerulea, L. gilleni; control peptide] | very limited inhibition of both species of lactobacilli; also recorded: almost no inhibition at any dose tested | largely unaffected; also recorded: very limited inhibition of both species of lactobacilli | inhibited HIV less than caerin 1.9 | reduced antibacterial activity |  |  |  |  |  |  |  |  |  | 
GLLGVLGSVAKHVLPHVVPVIAEHL-NH2 [caerin 1.2, caerin 1 antimicrobial peptide, origin L. caerulea] |  |  | effective inhibitors of HIV infection |  | 40–55% | significantly inhibited growth | remained quite high | inhibitory | almost no inhibition | less effective against N. lactamica than caerin 1.9 and caerin 1.10 | very effective inhibitors of HIV | limited toxicity | wide-spectrum anti-bacterial agents | 
GLLSVLGSVAKHVLPHVVPVIAEKL-NH2 [caerin 1.10, caerin 1 antimicrobial peptide, origin L. splendida] |  |  | effective inhibitors of HIV infection |  | 40–55% | significantly inhibited growth | remained quite high | no inhibition |  |  | very effective inhibitors of HIV | limited toxicity | wide-spectrum anti-bacterial agents | 
GLFGVLGSIAKHVLPHVVPVIAEKL-NH2 [caerin 1.9, caerin 1 antimicrobial peptide, origin L. chloris] | least apparent inhibition of growth of both tested lactobacilli | least apparent inhibition of growth of both tested lactobacilli | best profile of inhibition of HIV |  |  | significantly inhibited growth | remained quite high | inhibitory | almost no inhibition |  | very effective inhibitors of HIV | limited toxicity | wide-spectrum anti-bacterial agents | about 83%
GLLSVLGSVAQHVLPHVVPVIAEHL-NH2 [caerin 1.3, caerin 1 antimicrobial peptide, origin L. caerulea; control peptide] | very limited inhibition of both species of lactobacilli; also recorded: almost no inhibition at any dose tested | largely unaffected; also recorded: very limited inhibition of both species of lactobacilli | inhibited HIV less than caerin 1.9 | reduced antibacterial activity |  |  |  |  |  |  |  |  |  | 
GLFGVLGSIAKHLLPHVVPVIAEKL-NH2 [caerin 1.9 sm, synthetic analog of caerin 1.9 with a single amino acid change] | inhibited the growth of L. rhamnosus more than caerin 1.9; also recorded: inhibited growth to a greater extent than the previous four |  | equal or greater inhibition of HIV infection than caerin 1.9 |  |  |  |  |  |  |  |  |  |  | 
GLLSVLGSVAKHVLPHVVPVIAEHL-NH2 [caerin 1.1, antimicrobial peptide from Litoria caerulea, reference compound] |  |  |  |  |  |  |  |  |  |  | less effective in the inhibition of HIV transmission than other caerin family peptides |  | wide-spectrum anti-bacterial agents | 
GLFGILGSVAKHVLPHVIPVVAEHL-NH2 [caerin 1.20, caerin 1 antimicrobial peptide, origin L. caerulea/L. splendida] | slightly more inhibitory against L. rhamnosus than caerin 1.9 |  | slightly less effective in the inhibition of HIV |  | 40–55% | significantly inhibited growth | remained quite high |  |  |  | very effective inhibitors of HIV | limited toxicity | wide-spectrum anti-bacterial agents | 
GLLSVLGSVAKHVLPHVVPVIAAAL-NH2 [caerin 1.1 mod 7, synthetically modified caerin 1.1 peptide] | inhibited the growth of L. rhamnosus more than caerin 1.9; also recorded: inhibited growth to a greater extent than the previous four |  | equal or greater inhibition of HIV infection than caerin 1.9 |  |  |  |  |  |  |  |  |  |  | 
